Measured values taken from patent US5300513A, “Carbostyril derivatives and pharmaceutical composition containing the same” (Otsuka Pharmaceutical Co., Ltd., priority 1990, dated 1994).
Where a name gives a salt, the structure may show the parent alone.

target: T1, V1 receptor (Rattus norvegicus, UniProt P30560); test: V1 receptor binding assay (inhibition of [3H]-Arg-vasopressin binding to rat liver plasma membrane); conditions: not given
T1 construct: Using rat liver plasma membrane preparations; from tissue; host or cells: rat liver plasma membranes
Method: Using rat liver plasma membrane preparations prepared according to Ichihara's method [cf: Akira Ichihara, J. Bio. […] After incubation, the mixture is filtered three times using the glass filter (GF/F) so as to separate the membrane preparation combined with vasopressin and then washed with the buffer (5 ml). This glass filter is taken out and mixed with liquid scintillation cocktail. The amount of [H]^3 -vasopressin combined with the membrane is measured by liquid scintillation counter and the rate of the inhibitory effect of the test compound is estimated according to the following equation. [formula]

T1 sequence (P30560 whole entry): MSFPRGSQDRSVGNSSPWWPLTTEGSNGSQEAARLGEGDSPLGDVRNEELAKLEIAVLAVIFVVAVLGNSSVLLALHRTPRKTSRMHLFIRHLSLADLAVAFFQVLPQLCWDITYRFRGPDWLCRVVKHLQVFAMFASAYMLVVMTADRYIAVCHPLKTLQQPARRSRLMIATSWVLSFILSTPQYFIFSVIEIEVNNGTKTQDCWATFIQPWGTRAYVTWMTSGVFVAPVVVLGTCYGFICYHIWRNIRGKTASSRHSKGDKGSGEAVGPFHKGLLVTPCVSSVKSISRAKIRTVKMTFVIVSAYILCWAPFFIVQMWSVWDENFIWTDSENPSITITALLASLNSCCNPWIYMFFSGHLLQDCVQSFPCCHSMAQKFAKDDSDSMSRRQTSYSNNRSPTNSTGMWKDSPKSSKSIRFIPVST

`C=CCSc1ccc(C(=O)N2CCC(N3C(=O)CCc4ccccc43)CC2)c(OC)c1` [Test Compound 16, 1-[1-(2-Methoxy-4-allylthiobenzoyl)-4-piperidinyl]-3,4-dihydrocarbostyril] was tested, and the IC50 was 110 nM.

same assay, conditions: rat liver plasma membrane; [H]^3-Arg-vasopressin 2×10^-10 M; 37° C., 10 minutes, pH 8.0; read-out: IC50

In order of falling IC50:
1. O=C(c1ccc([S+]([O-])CCCCCN2CCCC2)cc1)N1CCC(N2C(=O)CCc3ccccc32)CC1 (stereo not drawn) [Test Compound 17, 1-[1-{4-[5-(1-Pyrrolidinyl)pentylsulfinyl)-benzoyl}-4-piperidinyl]-3,4-dihydrocarbostyril]  3000 nM
2. O=C(c1ccc(-n2ccnc2-c2ccccc2)cc1)N1CCC(N2C(=O)CCc3ccccc32)CC1 [Test Compound 20, 1-{1-[4-(2-Phenyl-1-imidazolyl)benzoyl]-4-piperidinyl}-3,4-dihydrocarbostyril]  2800 nM
3. COc1ccc(-c2nccn2-c2ccc(C(=O)N3CCC(N4C(=O)CCc5ccccc54)CC3)cc2)cc1 [Test Compound 21, 1-[1-{4-[2-(4-Methoxyphenyl)-1-imidazolyl]-benzoyl}-4-piperidinyl]-3,4-dihydrocarbostyril]  2700 nM
4. O=C(c1ccc(-c2nc3ccccc3[nH]2)cc1)N1CCC(N2C(=O)CCc3ccccc32)CC1 [Test Compound 19, 1-{1-[4-(2-Benzimidazolyl)benzoyl]-4-piperidinyl}-3,4-dihydrocarbostyril]  2100 nM
5. O=C(c1ccc(S(=O)(=O)CCCCCN2CCCC2)cc1)N1CCC(N2C(=O)CCc3ccccc32)CC1 [Test Compound 18, 1-[1-{4-[5-(1-Pyrrolidinyl)pentylsulfonyl]-benzoyl}-4-piperidinyl]-3,4-dihydrocarbostyril]  1900 nM
6. O=C(c1ccc(-c2ncc[nH]2)cc1)N1CCC(N2C(=O)CCc3ccccc32)CC1 [Test Compound 14, 1-{1-[4-(2-Imidazolyl)benzoyl}-4-piperidinyl}-3,4-dihydrocarbostyril]  1400 nM
7. O=C(c1ccc(-c2ccccn2)cc1)N1CCC(N2C(=O)CCc3ccccc32)CC1 [Test Compound 13, 1-{1-[4-(2-Pyridyl)benzoyl}-4-piperidinyl}-3,4-dihydrocarbostyril]  1200 nM
8. Nc1ccccc1Sc1nccn1-c1ccc(C(=O)N2CCC(N3C(=O)CCc4ccccc43)CC2)cc1 [Test Compound 15, 1-[1-{4-[2-(2-Aminophenylthio)-1-imidazolyl]-benzoyl}-4-piperidinyl]-3,4-dihydrocarbostyril]  800 nM
9. CCOc1ccc(C(=O)N2CCC(N3C(=S)CCc4ccccc43)CC2)c(OC)c1 [Test Compound 11, 1-[1-(2-Methoxy-4-ethoxybenzoyl)-4-piperidinyl]-3,4-dihydrothiocarbostyril]  730 nM
10. O=C(c1ccc(OCCCCCNCC(F)(F)F)cc1)N1CCC(N2C(=O)CCc3ccccc32)CC1 [Test Compound 4, 1-[1-{4-[5-(2,2,2-Trifluoroethylamino)-pentyloxy)benzoyl}-4-piperidinyl}-3,4-dihydrocarbostyril]  320 nM
11. C=CCNCC(O)CCCCOc1ccc(C(=O)N2CCC(N3C(=O)CCc4ccccc43)CC2)cc1 (stereo not drawn) [Test Compound 6, 1-{1-[4-(5-Hydroxy-6-allylaminohexyloxy)benzoyl]-4-piperidinyl}-3,4-dihydrocarbostyril]  140 nM
12. CCOC(=O)CC(=O)OCCN(C)CCCCCOc1ccc(C(=O)N2CCC(N3C(=O)CCc4ccccc43)CC2)cc1 [Test Compound 5, 1-[1-{4-[5-[N-Methyl-N-(2-ethoxycarbonylacetyloxyethyl)amino}pentyloxy]benzoyl}-4-piperidinyl]-3,4-dihydrocarbostyril]  110 nM
13. O=C(c1ccc(OCCCCCNCC23CC4CC(CC(C4)C2)C3)cc1)N1CCC(N2C(=O)CCc3ccccc32)CC1 [Test Compound 3, 1-{1-[4-(5-Tricyclo[3.3.1.1^3.7]decanylmethylaminopentyloxy)benzoyl]-4-piperidinyl}-3,4-dihydrocarbostyri]  100 nM
14. O=C(c1ccc(OCCCCCN2CCC(NC(=O)C(F)(F)F)CC2)cc1)N1CCC(N2C(=O)CCc3ccccc32)CC1 [Test Compound 8, 1-[1-{4-[5-(4-Trifluoroacetylamino-1-piperidinyl)pentyloxy]benzoyl}-4-piperidinyl]-3,4-dihydrocarbostyril]  63 nM
15. O=C(c1ccc(OCCCCCN2CCC3(CCCCC3)CC2)cc1)N1CCC(N2C(=O)CCc3ccccc32)CC1 [Test Compound 1, 1-[1-{4-[5-(Cyclohexanespiro-4'-(1-piperidinyl))pentyloxy]benzoyl}-4-piperidinyl]-3,4-dihydrocarbostyril]  47 nM
16. CCN(CC)CC(CCCCOc1ccc(C(=O)N2CCC(N3C(=O)CCc4ccccc43)CC2)cc1)OC(=O)NC (stereo not drawn) [Test Compound 10, 1-{1-[4-(5-Methylaminocarbonyloxy-6-diethylaminohexyloxy)benzoyl]-4-piperidinyl}-3,4-dihydrocarbostyril]  38 nM
17. CC(=O)NC1CCN(CCCCCOc2ccc(C(=O)N3CCC(N4C(=O)CCc5ccccc54)CC3)cc2)CC1 [Test Compound 9, 1-[1-{4-[5-(4-Acetylamino-1-piperidinyl)-pentyloxy)benzoyl}-4-piperidinyl]-3,4-dihydrocarbostyril]  36 nM
18. O=C(c1ccc(SCCCCCN2CCCC2)cc1)N1CCC(N2C(=O)CCc3ccccc32)CC1 [Test Compound 12, 1-[1-{4-[5-(1-Pyrrolidinyl)pentylthio]-benzoyl}-4-piperidinyl]-3,4-dihydrocarbostyril]  34 nM
19. NC1CCN(CCCCCOc2ccc(C(=O)N3CCC(N4C(=O)CCc5ccccc54)CC3)cc2)CC1 [Test Compound 7, 1-[1-{4-[5-(4-Amino-1-piperidinyl)pentyloxy)-benzoyl-}-4-piperidinyl]-3,4-dihydrocarbostyril]  28 nM
20. O=C(c1ccc(OCCCCCNC23CC4CC(CC(C4)C2)C3)cc1)N1CCC(N2C(=O)CCc3ccccc32)CC1 [Test Compound 2, 1-{1-[4-(5-Tricyclo[3.3.1.1^3.7]decanylaminopentyloxy)benzoyl]-4-piperidinyl}-3,4-dihydrocarbostyril hydrochloride]  27 nM
